Experimental data taken from patent publication US8609653B2, “Azaindole compounds and methods for treating HIV” (priority 2011, dated 2013).
pIC50: −log10 of the molar value. Counter-ions that a name gives are not always drawn.

What follows are molecules tested on HIV (assay: MT4 assay: antiviral HIV activity in MT-4 cells). Conditions: HTLV-1 transformed cell line MT-4; read-out 96 hours later with cell titer glo; 10 point dose response; trifluoroacetic acid salt; read-out: HIV MT4 Assay IC50.
Assay type: cell-based
Experimental: Antiviral HIV activity and cytotoxicity values for compounds of the invention from Table 1 were measured in parallel in the HTLV-1 transformed cell line MT-4 based on the method previously described (Hazen et al., 2007, In vitro antiviral activity of the novel, tyrosyl-based human immunodeficiency virus (HIV) type 1 protease inhibitor brecanavir (GW640385) in combination with other antiretrovirals and against a panel of protease inhibitor-resistant HIV (Hazen et al., “In vitro antiviral activity of the novel, tyrosyl-based human immunodeficiency virus (HIV) type 1 protease inhibitor brecanavir (GW640385) in combination with other antiretrovirals and against a panel of protease inhibitor-resistant HIV”, Antimicrob. Agents Chemother. 2007, 51: 3147-3154; and Pauwels et al., “Sensitive and rapid assay on MT-4 cells for the detection of antiviral compounds against the AIDS virus”, J. of Virological Methods 1987, 16: 171-185).
Luciferase activity was measured 96 hours later by adding a cell titer glo (Promega, Madison, Wis.). Percent inhibition of cell protection data was plotted relative to no compound control. Under the same condition, cytotoxicity of the compounds was determined using cell titer Glo™ (Promega, Madison, Wis.). IC50s were determined from a 10 point dose response curve using 3-4-fold serial dilution for each compound, which spans a concentration range>1000 fold.
These values are plotted against the molar compound concentrations using the standard four parameter logistic equation: y=((Vmax*x^n)/(K^n+x^n))+Y2
Y2=minimum y n=slope factor
Vmax=maximum y x=compound concentration [M]

| Structure (SMILES) | pIC50 |
| --- | --- |
| Cc1nc2c(ccn2Cc2ccc(F)c(F)c2)c(-c2ccc3c(c2C)NCCO3)c1[C@H](OC(C)(C)C)C(=O)O (atropisomer, axis not shown; (P)) [Example 100, (2S)(P)-2-(tert-butoxy)-2-(1-(3,4-difluorobenzyl)-6-methyl-4-(5-methyl-3,4-dihydro-2H-benzo[b][1,4]oxazin-6-yl)-1H-pyrrolo[2,3-b]pyridin-5-yl)acetic acid, trifluoroacetic acid salt] | 7.00 |

Same assay, conditions: Human immunodeficiency virus 1, MT4, 96 h, read-out: HIV MT4 Assay IC50 (μM), HTLV-1 transformed cell line MT-4; read-out 96 hours later with cell titer glo; 10 point dose response

| Structure (SMILES) | IC50 [µM] |
| --- | --- |
| Cc1nc2c(ccn2Cc2ccc(F)c(F)c2)c(-c2ccc3c(c2C)CCCO3)c1[C@H](OC(C)(C)C)C(=O)O (atropisomer, axis not shown; (M)) [Example 87, (2S)(M)-2-(tert-Butoxy)-2-(1-(3,4-difluorobenzyl)-6-methyl-4-(5-methylchroman-6-yl)-1H-pyrrolo[2,3-b]pyridin-5-yl)acetic acid] | 0.005 |
| Cc1nc2c(ccn2Cc2ccc(F)c(F)c2)c(-c2cc(Cl)c3c(c2C)CCCO3)c1[C@H](OC(C)(C)C)C(=O)O (atropisomer, axis not shown; (M)) [Example 95, (2S)(M)-2-(tert-butoxy)-2-(4-(8-chloro-5-methylchroman-6-yl)-1-(3,4-difluorobenzyl)-6-methyl-1H-pyrrolo[2,3-b]pyridin-5-yl)acetic acid] | 0.04 |
| Cc1nc2c(ccn2Cc2ccc(F)c(F)c2)c(-c2cc(F)c3c(c2C)CCCO3)c1[C@H](OC(C)(C)C)C(=O)O (atropisomer, axis not shown; (M)) [Example 96, (2S)(M)-2-(tert-butoxy)-2-(1-(3,4-difluorobenzyl)-4-(8-fluoro-5-methylchroman-6-yl)-6-methyl-1H-pyrrolo[2,3-b]pyridin-5-yl)acetic acid] | 0.006 |
| Cc1nc2c(ccn2Cc2ccc(F)c(F)c2)c(-c2ccc3c(c2C)NCCO3)c1[C@H](OC(C)(C)C)C(=O)O (atropisomer, axis not shown; (M)) [Example 97, (2S)(M)-2-(tert-butoxy)-2-(1-(3,4-difluorobenzyl)-6-methyl-4-(5-methyl-3,4-dihydro-2H-benzo[b][1,4]oxazin-6-yl)-1H-pyrrolo[2,3-b]pyridin-5-yl)acetic acid, trifluoroacetic acid salt] | 0.012 |
| Cc1nc2c(ccn2Cc2cccc(F)c2F)c(-c2cc(Cl)c3c(c2C)CCCO3)c1[C@H](OC(C)(C)C)C(=O)O (atropisomer, axis not shown; (M)) [Example 98, (2S(M))-2-(tert-butoxy)-2-(4-(8-chloro-5-methylchroman-6-yl)-1-(2,3-difluorobenzyl)-6-methyl-1H-pyrrolo[2,3-b]pyridin-5-yl)acetic acid] | 0.181 |
| Cc1nc2c(ccn2Cc2cccc(F)c2F)c(-c2ccc3c(c2C)CCCO3)c1[C@H](OC(C)(C)C)C(=O)O (atropisomer, axis not shown; (M)) [Example 99, (2S)(M)-2-(tert-butoxy)-2-(1-(2,3-difluorobenzyl)-6-methyl-4-(5-methylchroman-6-yl)-1H-pyrrolo[2,3-b]pyridin-5-yl)acetic acid] | 0.008 |
| Cc1ccc(-c2c([C@H](OC(C)(C)C)C(=O)O)c(C)nc3c2ccn3Cc2ccc(F)c(F)c2)c(C)c1 (atropisomer, axis not shown; (M)) [Example 101, (2S)(M)-2-(tert-butoxy)-2-(1-(3,4-difluorobenzyl)-4-(2,4-dimethylphenyl)-6-methyl-1H-pyrrolo[2,3-b]pyridin-5-yl)acetic acid] | 0.09 |
| Cc1nc2c(ccn2Cc2cccc(F)c2F)c(-c2ccc3c(c2C)NCCO3)c1[C@H](OC(C)(C)C)C(=O)O (atropisomer, axis not shown; (M)) [Example 104, (S)-2-(tert-Butoxy)-2-((M)-1-(2,3-difluorobenzyl)-6-methyl-4-(5-methyl-3,4-dihydro-2H-benzo[b][1,4]oxazin-6-yl)-1H-pyrrolo[2,3-b]pyridin-5-yl)acetic acid] | 0.013 |
| Cc1nc2c(c(-c3ccc4c(c3C)CCCO4)c1[C@H](OC(C)(C)C)C(=O)O)CCN2 (atropisomer, axis not shown; (M)) [Example 108, (2S)(M)-2-(tert-Butoxy)-2-(6-methyl-4-(5-methylchroman-6-yl)-2,3-dihydro-1H-pyrrolo[2,3-b]pyridin-5-yl)acetic acid] | 0.44 |
| Cc1nc2c(ccn2Cc2ccc(F)c(F)c2)c(-c2cc3c(cc2F)OCCC3)c1[C@H](OC(C)(C)C)C(=O)O (atropisomer, axis not shown; (M)) [Example 109, (2S)(M)-2-(tert-butoxy)-2-(1-(3,4-difluorobenzyl)-4-(7-fluorochroman-6-yl)-6-methyl-1H-pyrrolo[2,3-b]pyridin-5-yl)acetic acid] | 0.015 |
| COc1ccc(-c2c([C@H](OC(C)(C)C)C(=O)O)c(C)nc3c2ccn3Cc2ccc(F)c(F)c2)c(C)c1 (atropisomer, axis not shown; (M)) [Example 111, (2S)(M)-2-(tert-Butoxy)-2-(1-(3,4-difluorobenzyl)-4-(4-methoxy-2-methylphenyl)-6-methyl-1H-pyrrolo[2,3-b]pyridin-5-yl)acetic acid] | 0.037 |
| Cc1nc2c(ccn2Cc2ccc(F)c(F)c2)c(-c2ccc3c(c2Cl)NCCO3)c1[C@H](OC(C)(C)C)C(=O)O (atropisomer, axis not shown; (M)) [Example 113, (2S)(2M)-2-(tert-Butoxy)-2-(4-(5-chloro-3,4-dihydro-2H-benzo[b][1,4]oxazin-6-yl)-1-(3,4-difluorobenzyl)-6-methyl-M-pyrrolo[2,3-b]pyridin-5-yl)acetic acid, Trifluoroacetic acid salt] | 0.009 |
| Cc1nc2c(ccn2Cc2ccc(F)c(F)c2)c(-c2ccc3c(c2Cl)N(C)CCO3)c1[C@H](OC(C)(C)C)C(=O)O (atropisomer, axis not shown; (M)) [Example 116, (2S)(M)-2-(tert-Butoxy)-2-(4-(5-chloro-4-methyl-3,4-dihydro-2H-benzo[b][1,4]oxazin-6-yl)-1-(3,4-difluorobenzyl)-6-methyl-1H-pyrrolo[2,3-b]pyridin-5-yl)acetic acid, Trifluoroacetic acid salt] | 0.022 |
| Cc1nc2c(c(-c3ccc4c(c3C)NCCO4)c1[C@H](OC(C)(C)C)C(=O)O)CCN2Cc1cccc(F)c1F (atropisomer, axis not shown; (M)) [Example 118, (2S)(M)-2-(tert-butoxy)-2-(1-(2,3-difluorobenzyl)-6-methyl-4-(5-methyl-3,4-dihydro-2H-benzo[b][1,4]oxazin-6-yl)-2,3-dihydro-1H-pyrrolo[2,3-b]pyridin-5-yl)acetic acid, trifluoroacetic acid salt] | 0.14 |
| Cc1nc2c(c(-c3ccc4c(c3C)CCCO4)c1[C@H](OC(C)(C)C)C(=O)O)CCN2Cc1cccc(F)c1F (atropisomer, axis not shown; (M)) [Example 119] | 0.009 |
| Cc1cc(F)ccc1Cn1ccc2c(-c3ccc4c(c3C)NCCO4)c([C@H](OC(C)(C)C)C(=O)O)c(C)nc21 (atropisomer, axis not shown; (M)) [Example 122, (2S)(M)-2-(tert-butoxy)-2-(1-(4-fluoro-2-methylbenzyl)-6-methyl-4-(5-methyl-3,4-dihydro-2H-benzo[b][1,4]oxazin-6-yl)-1H-pyrrolo[2,3-b]pyridin-5-yl)acetic acid] | 0.014 |
| Cc1nc2c(ccn2Cc2ccc(F)c(F)c2)c(-c2ccc3c4c(ccnc24)CCO3)c1[C@H](OC(C)(C)C)C(=O)O (atropisomer, axis not shown; (M)) [Example 124, (S)-2-(tert-butoxy)-2-(1-(3,4-difluorobenzyl)-4-((M)-2,3-dihydropyrano[4,3,2-de]quinolin-7-yl)-6-methyl-1H-pyrrolo[2,3-b]pyridin-5-yl)acetic acid] | 0.035 |
| Cc1nc2c(ccn2C)c(-c2cc(F)c3c(c2C)CCCO3)c1[C@H](OC(C)(C)C)C(=O)O (atropisomer, axis not shown; (M)) [Example 131, (2S)(M)-2-(tert-butoxy)-2-(4-(8-fluoro-5-methylchroman-6-yl)-1,6-dimethyl-1H-pyrrolo[2,3-b]pyridin-5-yl)acetic acid, Trifluoroacetic acid salt] | 0.055 |
| Cc1nc2c(ccn2Cc2cccc(F)c2F)c(-c2cc(F)c3c(c2C)NCCO3)c1[C@H](OC(C)(C)C)C(=O)O (atropisomer, axis not shown; (M)) [Example 132] | 0.021 |

Same assay, conditions: read-out: HIV MT4 Assay IC50; HTLV-1 transformed cell line MT-4; read-out 96 hours later with cell titer glo; 10 point dose response; Trifluoroacetic acid salt

| Structure (SMILES) | pIC50 |
| --- | --- |
| Cc1nc2c(c3c(n2C)CCCC3)c(-c2ccc3c(c2C)NCCO3)c1[C@H](OC(C)(C)C)C(=O)O (atropisomer, axis not shown; (M)) [Example 130, (2S)(M)-2-(tert-butoxy)-2-(2,9-dimethyl-4-(5-methyl-3,4-dihydro-2H-benzo[b][1,4]oxazin-6-yl)-6,7,8,9-tetrahydro-5H-pyrido[2,3-b]indol-3-yl)acetic acid, Trifluoroacetic acid salt] | 8.00 |
